Consider one compound from publication doi:10.1101/2023.09.11.557219v1 (biorxiv, 2023).

Structures are written as SMILES.

In the experiment the target is SARS-CoV-2 M^pro (main protease, 3CL^pro, NSP5) (Severe acute respiratory syndrome coronavirus 2, UniProt P0DTD1). The experiment can be described thus: fluorogenic substrate cleavage, Morrison fit. Particulars: HEPES 25 mM pH 7.0; fluorogenic substrate SAE0180. Type of experiment: biochemical.

Compound `O=C(NCCN1CCCC1)N1c2ccccc2Sc2ccccc21` [compound 3, 4080] came in with a Ki of 80 µM.
